Results published in ChEMBL document CHEMBL3044763, “Inhibitory Activities of Rhodanine Derivatives on Plant Growth” (Biosci Biotechnol Biochem, 1996).

Legend:
[1] = tested on: Brassica rapa subsp. oleifera; assay: Growth inhibition of Brassica rapa subsp. oleifera assessed as total chlorophyll level at 3 x 10^-5 M after 7 days; format: functional; parameters: scale not given: the % may be the effect or the level left
[2] = Toxicity in Mus musculus ddY (mouse) assessed as mortality at 650 mg/kg, ip after 6 days; format: organism-based; parameters: dose 650 mg/kg, route intraperitoneal; conditions: in vivo
[3] = Toxicity in Mus musculus ddY (mouse) assessed as mortality at 650 mg/kg, ip after 2 days; format: organism-based; parameters: dose 650 mg/kg, route intraperitoneal; conditions: in vivo
[4] = Toxicity in Mus musculus ddY (mouse) assessed as mortality at 450 mg/kg, ip after 3 days; format: organism-based; parameters: dose 450 mg/kg, route intraperitoneal; conditions: in vivo
[5] = Toxicity in Mus musculus ddY (mouse) assessed as mortality at 500 mg/kg, ip after 1 day; format: organism-based; parameters: dose 500 mg/kg, route intraperitoneal; conditions: in vivo
[6] = Toxicity in Mus musculus ddY (mouse) assessed as mortality at 400 mg/kg, ip after 5 days; format: organism-based; parameters: dose 400 mg/kg, route intraperitoneal; conditions: in vivo
[7] = Toxicity in Mus musculus ddY (mouse) assessed as mortality at 600 mg/kg, ip after 1 day; format: organism-based; parameters: dose 600 mg/kg, route intraperitoneal; conditions: in vivo
[8] = Toxicity in Mus musculus ddY (mouse) assessed as mortality at 650 mg/kg, ip after 5 days; format: organism-based; parameters: dose 650 mg/kg, route intraperitoneal; conditions: in vivo
[9] = Toxicity in Mus musculus ddY (mouse) assessed as mortality at 450 mg/kg, ip after 1 day; format: organism-based; parameters: dose 450 mg/kg, route intraperitoneal; conditions: in vivo
[10] = Toxicity in Mus musculus ddY (mouse) assessed as mortality at 650 mg/kg, ip after 7 days; format: organism-based; parameters: dose 650 mg/kg, route intraperitoneal; conditions: in vivo
[11] = Toxicity in Mus musculus ddY (mouse) assessed as mortality at 500 mg/kg, ip after 4 days; format: organism-based; parameters: dose 500 mg/kg, route intraperitoneal; conditions: in vivo
[12] = tested on: Brassica rapa subsp. oleifera; assay: Growth inhibition of Brassica rapa subsp. oleifera assessed as chlorophyll b level at 3 x 10^-5 M after 7 days; format: functional; parameters: scale not given: the % may be the effect or the level left
[13] = Toxicity in Mus musculus ddY (mouse) assessed as mortality at 400 mg/kg, ip after 2 days; format: organism-based; parameters: dose 400 mg/kg, route intraperitoneal; conditions: in vivo
[14] = Toxicity in Mus musculus ddY (mouse) assessed as mortality at 500 mg/kg, ip after 2 days; format: organism-based; parameters: dose 500 mg/kg, route intraperitoneal; conditions: in vivo
[15] = tested on: Brassica rapa subsp. oleifera; assay: Growth inhibition of Brassica rapa subsp. oleifera assessed as chlorophyll b level at 3 x 10^-4 M after 7 days; format: functional; parameters: scale not given: the % may be the effect or the level left
[16] = Toxicity in Mus musculus ddY (mouse) assessed as mortality at 400 mg/kg, ip after 6 days; format: organism-based; parameters: dose 400 mg/kg, route intraperitoneal; conditions: in vivo
[17] = tested on: Brassica rapa subsp. oleifera; assay: Growth inhibition of Brassica rapa subsp. oleifera assessed as root growth at 1 x 10^-4 M after 7 days; format: functional
[18] = Toxicity in ip dosed Mus musculus ddY (mouse) assessed as mortality after 1 to 7 days; format: organism-based; conditions: in vivo
[19] = tested on: Brassica rapa subsp. oleifera; assay: Growth inhibition of Brassica rapa subsp. oleifera assessed as chlorophyll b level at 1 x 10^-4 M after 7 days; format: functional; parameters: scale not given: the % may be the effect or the level left
[20] = Toxicity in Mus musculus ddY (mouse) assessed as mortality at 400 mg/kg, ip after 3 days; format: organism-based; parameters: dose 400 mg/kg, route intraperitoneal; conditions: in vivo
[21] = Toxicity in Mus musculus ddY (mouse) assessed as mortality at 600 mg/kg, ip after 3 days; format: organism-based; parameters: dose 600 mg/kg, route intraperitoneal; conditions: in vivo
[22] = Toxicity in Mus musculus ddY (mouse) assessed as mortality at 400 mg/kg, ip after 4 days; format: organism-based; parameters: dose 400 mg/kg, route intraperitoneal; conditions: in vivo
[23] = tested on: Brassica rapa subsp. oleifera; assay: Growth inhibition of Brassica rapa subsp. oleifera assessed as total chlorophyll level at 1 x 10^-4 M after 7 days; format: functional; parameters: scale not given: the % may be the effect or the level left
[24] = Toxicity in Mus musculus ddY (mouse) assessed as mortality at 400 mg/kg, ip after 1 day; format: organism-based; parameters: dose 400 mg/kg, route intraperitoneal; conditions: in vivo
[25] = Toxicity in Mus musculus ddY (mouse) assessed as mortality at 650 mg/kg, ip after 1 day; format: organism-based; parameters: dose 650 mg/kg, route intraperitoneal; conditions: in vivo
[26] = Toxicity in Mus musculus ddY (mouse) assessed as mortality at 650 mg/kg, ip after 4 days; format: organism-based; parameters: dose 650 mg/kg, route intraperitoneal; conditions: in vivo
[27] = Toxicity in Mus musculus ddY (mouse) assessed as mortality at 500 mg/kg, ip after 7 days; format: organism-based; parameters: dose 500 mg/kg, route intraperitoneal; conditions: in vivo
[28] = tested on: Brassica rapa subsp. oleifera; assay: Growth inhibition of Brassica rapa subsp. oleifera assessed as total chlorophyll level at 5 x 10^-5 M after 7 days; format: functional; parameters: scale not given: the % may be the effect or the level left
[29] = Toxicity in Mus musculus ddY (mouse) assessed as mortality at 550 mg/kg, ip after 5 days; format: organism-based; parameters: dose 550 mg/kg, route intraperitoneal; conditions: in vivo
[30] = Toxicity in Mus musculus ddY (mouse) assessed as mortality at 450 mg/kg, ip after 4 days; format: organism-based; parameters: dose 450 mg/kg, route intraperitoneal; conditions: in vivo
[31] = Toxicity in Mus musculus ddY (mouse) assessed as mortality at 550 mg/kg, ip after 1 day; format: organism-based; parameters: dose 550 mg/kg, route intraperitoneal; conditions: in vivo
[32] = tested on: Brassica rapa subsp. oleifera; assay: Growth inhibition of Brassica rapa subsp. oleifera assessed as root growth at 3 x 10^-4 M after 7 days; format: functional
[33] = Toxicity in Mus musculus ddY (mouse) assessed as mortality at 450 mg/kg, ip after 6 days; format: organism-based; parameters: dose 450 mg/kg, route intraperitoneal; conditions: in vivo
[34] = Toxicity in Mus musculus ddY (mouse) assessed as mortality at 450 mg/kg, ip after 7 days; format: organism-based; parameters: dose 450 mg/kg, route intraperitoneal; conditions: in vivo
[35] = Toxicity in Mus musculus ddY (mouse) assessed as mortality at 600 mg/kg, ip after 4 days; format: organism-based; parameters: dose 600 mg/kg, route intraperitoneal; conditions: in vivo
[36] = Toxicity in Mus musculus ddY (mouse) assessed as mortality at 550 mg/kg, ip after 6 days; format: organism-based; parameters: dose 550 mg/kg, route intraperitoneal; conditions: in vivo
[37] = tested on: Brassica rapa subsp. oleifera; assay: Growth inhibition of Brassica rapa subsp. oleifera assessed as chlorophyll a level at 1 x 10^-4 M after 7 days; format: functional; parameters: scale not given: the % may be the effect or the level left
[38] = tested on: Brassica rapa subsp. oleifera; assay: Growth inhibition of Brassica rapa subsp. oleifera assessed as root growth at 3 x 10^-5 M after 7 days; format: functional
[39] = Toxicity in Mus musculus ddY (mouse) assessed as mortality at 550 mg/kg, ip after 2 days; format: organism-based; parameters: dose 550 mg/kg, route intraperitoneal; conditions: in vivo
[40] = tested on: Brassica rapa subsp. oleifera; assay: Growth inhibition of Brassica rapa subsp. oleifera assessed as root growth at 5 x 10^-5 M after 7 days; format: functional
[41] = Toxicity in Mus musculus ddY (mouse) assessed as mortality at 550 mg/kg, ip after 4 days; format: organism-based; parameters: dose 550 mg/kg, route intraperitoneal; conditions: in vivo
[42] = Toxicity in Mus musculus ddY (mouse) assessed as mortality at 600 mg/kg, ip after 7 days; format: organism-based; parameters: dose 600 mg/kg, route intraperitoneal; conditions: in vivo
[43] = tested on: Brassica rapa subsp. oleifera; assay: Growth inhibition of Brassica rapa subsp. oleifera assessed as chlorophyll a level at 3 x 10^-5 M after 7 days; format: functional; parameters: scale not given: the % may be the effect or the level left
[44] = Toxicity in Mus musculus ddY (mouse) assessed as mortality at 450 mg/kg, ip after 5 days; format: organism-based; parameters: dose 450 mg/kg, route intraperitoneal; conditions: in vivo
[45] = Toxicity in Mus musculus ddY (mouse) assessed as mortality at 550 mg/kg, ip after 7 days; format: organism-based; parameters: dose 550 mg/kg, route intraperitoneal; conditions: in vivo
[46] = Toxicity in Mus musculus ddY (mouse) assessed as mortality at 450 mg/kg, ip after 2 days; format: organism-based; parameters: dose 450 mg/kg, route intraperitoneal; conditions: in vivo
[47] = Toxicity in Mus musculus ddY (mouse) assessed as mortality at 500 mg/kg, ip after 5 days; format: organism-based; parameters: dose 500 mg/kg, route intraperitoneal; conditions: in vivo
[48] = Toxicity in Mus musculus ddY (mouse) assessed as mortality at 600 mg/kg, ip after 6 days; format: organism-based; parameters: dose 600 mg/kg, route intraperitoneal; conditions: in vivo
[49] = tested on: Brassica rapa subsp. oleifera; assay: Growth inhibition of Brassica rapa subsp. oleifera assessed as chlorophyll a level at 3 x 10^-4 M after 7 days; format: functional; parameters: scale not given: the % may be the effect or the level left
[50] = Toxicity in Mus musculus ddY (mouse) assessed as mortality at 600 mg/kg, ip after 2 days; format: organism-based; parameters: dose 600 mg/kg, route intraperitoneal; conditions: in vivo
[51] = Toxicity in Mus musculus ddY (mouse) assessed as mortality at 500 mg/kg, ip after 3 days; format: organism-based; parameters: dose 500 mg/kg, route intraperitoneal; conditions: in vivo
[52] = Toxicity in Mus musculus ddY (mouse) assessed as mortality at 600 mg/kg, ip after 5 days; format: organism-based; parameters: dose 600 mg/kg, route intraperitoneal; conditions: in vivo
[53] = tested on: Brassica rapa subsp. oleifera; assay: Growth inhibition of Brassica rapa subsp. oleifera assessed as chlorophyll a level at 5 x 10^-5 M after 7 days; format: functional; parameters: scale not given: the % may be the effect or the level left
[54] = Toxicity in Mus musculus ddY (mouse) assessed as mortality at 650 mg/kg, ip after 3 days; format: organism-based; parameters: dose 650 mg/kg, route intraperitoneal; conditions: in vivo
[55] = tested on: Brassica rapa subsp. oleifera; assay: Growth inhibition of Brassica rapa subsp. oleifera assessed as chlorophyll b level at 5 x 10^-5 M after 7 days; format: functional; parameters: scale not given: the % may be the effect or the level left
[56] = Toxicity in Mus musculus ddY (mouse) assessed as mortality at 550 mg/kg, ip after 3 days; format: organism-based; parameters: dose 550 mg/kg, route intraperitoneal; conditions: in vivo
[57] = tested on: Brassica rapa subsp. oleifera; assay: Growth inhibition of Brassica rapa subsp. oleifera assessed as total chlorophyll level at 3 x 10^-4 M after 7 days; format: functional; parameters: scale not given: the % may be the effect or the level left
[58] = Toxicity in Mus musculus ddY (mouse) assessed as mortality at 400 mg/kg, ip after 7 days; format: organism-based; parameters: dose 400 mg/kg, route intraperitoneal; conditions: in vivo
[59] = Toxicity in Mus musculus ddY (mouse) assessed as mortality at 500 mg/kg, ip after 6 days; format: organism-based; parameters: dose 500 mg/kg, route intraperitoneal; conditions: in vivo

## O=C(O)CN1C(=O)CSC1=S [RHODANINE-3-ACETIC ACID]
[1]
  Activity: 25.06%
[2]
  mortality at 144 h: 100%
[3]
  mortality at 48 h: 100%
[4]
  mortality at 72 h: 0%
[5]
  mortality at 24 h: 0%
[6]
  mortality at 120 h: 0%
[7]
  mortality at 24 h: 20%
[8]
  mortality at 120 h: 100%
[9]
  mortality at 24 h: 0%
[10]
  mortality at 168 h: 100%
[11]
  mortality at 96 h: 20%
[12]
  Activity: 7.05%
[13]
  mortality at 48 h: 0%
[14]
  mortality at 48 h: 20%
[15]
  Activity: 3.76%
[16]
  mortality at 144 h: 0%
[17]
  Activity: 39.8 mm
[18]
  LD50: 510 mg/kg
[19]
  Activity: 5.48%
[20]
  mortality at 72 h: 0%
[21]
  mortality at 72 h: 60%
[22]
  mortality at 96 h: 0%
[23]
  Activity: 19.57%
[24]
  mortality at 24 h: 0%
[25]
  mortality at 24 h: 20%
[26]
  mortality at 96 h: 100%
[27]
  mortality at 168 h: 40%
[28]
  Activity: 24.42%
[29]
  mortality at 120 h: 80%
[30]
  mortality at 96 h: 20%
[31]
  mortality at 24 h: 0%
[32]
  Activity: 18.3 mm
[33]
  mortality at 144 h: 20%
[34]
  mortality at 168 h: 20%
[35]
  mortality at 96 h: 80%
[36]
  mortality at 144 h: 80%
[37]
  Activity: 14.1%
[38]
  Root length: 57 mm
[39]
  mortality at 48 h: 0%
[40]
  Root length: 57.1 mm
[41]
  mortality at 96 h: 80%
[42]
  mortality at 168 h: 80%
[43]
  Activity: 18.01%
[44]
  mortality at 120 h: 20%
[45]
  mortality at 168 h: 80%
[46]
  mortality at 48 h: 0%
[47]
  mortality at 120 h: 20%
[48]
  mortality at 144 h: 80%
[49]
  Activity: 10.17%
[50]
  mortality at 48 h: 60%
[51]
  mortality at 72 h: 20%
[52]
  mortality at 120 h: 80%
[53]
  Activity: 17.08%
[54]
  mortality at 72 h: 100%
[55]
  Activity: 7.35%
[56]
  mortality at 72 h: 40%
[57]
  Activity: 13.99%
[58]
  mortality at 168 h: 0%
[59]
  mortality at 144 h: 40%
